Experiments:
Conditions in all cases: 72 h
[1] = system: Vero E6; test: drug sensitivity score (DSS) for viability; higher = more toxic; extreme values may be limits of the assay
[2] = system: HepG2; test: as above
[3] = system: Calu-3; test: as above
[4] = system: Caco-2; test: as above
[5] = system: U2OS; test: as above
[6] = system: Vero E6; test: cell viability relative to DMSO; higher = less toxic
[7] = system: HepG2; test: as above
[8] = system: Calu-3; test: as above
[9] = system: Caco-2; test: as above
[10] = system: U2OS; test: as above
[11] = system: Vero E6; test: relative viability EC50 (midpoint between 100% and the lowest measured viability); higher = less toxic
[12] = system: HepG2; test: as above
[13] = system: Calu-3; test: as above
[14] = system: Caco-2; test: as above
[15] = system: U2OS; test: as above

| SMILES | drug sensitivity score [1] | drug sensitivity score [2] | drug sensitivity score [3] | drug sensitivity score [4] | drug sensitivity score [5] | cell viability ([6]; 1 nM) [%] | cell viability ([6]; 10 nM) [%] | cell viability ([6]; 100 nM) [%] | cell viability ([6]; 1000 nM) [%] | cell viability ([6]; 10000 nM) [%] | cell viability ([7]; 1 nM) [%] | cell viability ([7]; 10 nM) [%] | cell viability ([7]; 100 nM) [%] | cell viability ([7]; 1000 nM) [%] | cell viability ([7]; 10000 nM) [%] | cell viability ([8]; 1 nM) [%] | cell viability ([8]; 10 nM) [%] | cell viability ([8]; 100 nM) [%] | cell viability ([8]; 1000 nM) [%] | cell viability ([8]; 10000 nM) [%] | cell viability ([9]; 1 nM) [%] | cell viability ([9]; 10 nM) [%] | cell viability ([9]; 100 nM) [%] | cell viability ([9]; 1000 nM) [%] | cell viability ([9]; 10000 nM) [%] | cell viability ([10]; 1 nM) [%] | cell viability ([10]; 10 nM) [%] | cell viability ([10]; 100 nM) [%] | cell viability ([10]; 1000 nM) [%] | cell viability ([10]; 10000 nM) [%] | relative viability EC50 [11] [µM] | relative viability EC50 [12] [µM] | relative viability EC50 [13] [µM] | relative viability EC50 [14] [µM] | relative viability EC50 [15] [µM] |
| --- | --- | --- | --- | --- | --- | --- | --- | --- | --- | --- | --- | --- | --- | --- | --- | --- | --- | --- | --- | --- | --- | --- | --- | --- | --- | --- | --- | --- | --- | --- | --- | --- | --- | --- | --- |
| C[n+]1c2cc(N)ccc2cc2ccc(N)cc21 [acriflavinium] | 5.2 | 14.4 | 4.9 | 8.3 | 4.5 | 96.9 | 94.8 | 103 | 82 | 49.3 | 84.1 | 85.9 | 88.6 | 33.1 | 1.2 | 108 | 108 | 99.3 | 94.9 | 25.8 | 97.4 | 91.1 | 91 | 62.3 | 37.4 | 98.7 | 101 | 99.7 | 100 | 18.2 | 1.27 | 0.516 | 2.62 | 0.594 | 3.2 |
| O=C(CCCCCCCC(=O)NCCO)NCCO [adelmidrol] | 0 | 0 | 0 | 0 | 0 | 99.2 | 98.7 | 96.4 | 96 | 107 | 112 | 94.9 | 98.6 | 94.8 | 101 | 94.2 | 97.1 | 87.2 | 107 | 104 | 93.1 | 98.7 | 96.2 | 104 | 98.9 | 96.3 | 103 | 94.5 | 99.5 | 103 | > 10 | > 10 | > 10 | > 10 | > 10 |
| C=CCN1CCCC1CNC(=O)c1cc2nn[nH]c2cc1OC (stereo not given) [alizapride] | 0 | 0 | 0 | 0 | 0 | 92.9 | 97.3 | 94.9 | 91.4 | 105 | 108 | 94.2 | 104 | 88.8 | 103 | 89.9 | 91.4 | 86.2 | 101 | 112 | 94.7 | 104 | 90.1 | 98 | 107 | 97.6 | 99.9 | 94.5 | 106 | 100 | > 10 | > 10 | > 10 | > 10 | > 10 |
| CCOC(=O)[C@H]1O[C@@H]1C(=O)N[C@@H](CC(C)C)C(=O)NCCC(C)C [aloxistatin] | 0 | 0.2 | 0 | 0 | 0 | 106 | 109 | 108 | 102 | 99.2 | 118 | 102 | 96.1 | 90.7 | 88.8 | 91.7 | 99.3 | 107 | 101 | 99.5 | 97.6 | 98.8 | 90.5 | 102 | 98 | 99.6 | 102 | 94.7 | 102 | 97.6 | > 10 | > 10 | > 10 | > 10 | > 10 |
| Nc1ccn([C@H]2CO[C@@H](CO)S2)c(=O)n1 [apricitabine] | 0 | 0 | 0 | 0 | 0 | 93.7 | 96.9 | 99.1 | 96.4 | 104 | 94.9 | 105 | 104 | 99.8 | 103 | 101 | 101 | 98.5 | 92.5 | 102 | 99.9 | 91.7 | 98.9 | 103 | 105 | 98.4 | 94.2 | 96.6 | 102 | 100 | > 10 | > 10 | > 10 | > 10 | > 10 |
| CC1(C)S[C@@H]2[C@H](NC(=O)[C@H](NC(=O)N3CCNC3=O)c3ccccc3)C(=O)N2[C@H]1C(=O)O [azlocillin] | 0 | 0 | 0 | 0 | 0 | 95.7 | 96.8 | 96.9 | 94.2 | 98 | 99.1 | 88.5 | 99.3 | 93.9 | 88 | 97.1 | 100 | 93 | 98.7 | 105 | 105 | 93 | 91.3 | 98.8 | 98.1 | 96.6 | 100 | 93.6 | 95 | 98.6 | > 10 | > 10 | > 10 | > 10 | > 10 |

Source: the supplement of paper PMC13380429
